Values quoted from earlier work as cited in US20210330638A1, “NANO-PENETRATIVE CANNABINOID OIL BLENDS AND COMPOSITIONS AND METHODS OF FORMULATION THEREOF” (Theragun, Inc., priority 2020, published 2021).

Details: in vivo

- pulmonary uptake: 60%
SMILES: CC1=CCC2CC1C2(C)C (stereo not drawn) [a-Pinene, alpha-pinene]
